For 31 compounds, inhibition results are on record in patent US20140243335A1, “SUBSTITUTED HYDOXAMIC ACIDS AND USES THEREOF” (Millennium Pharmaceuticals, Inc., priority 2010, published 2014).

The assay addresses T1, purified human HDAC6 (Homo sapiens, UniProt Q9UBN7).
T1 construct: purchased BPS Bioscience 5006
T1 sequence (Q9UBN7 1-1215): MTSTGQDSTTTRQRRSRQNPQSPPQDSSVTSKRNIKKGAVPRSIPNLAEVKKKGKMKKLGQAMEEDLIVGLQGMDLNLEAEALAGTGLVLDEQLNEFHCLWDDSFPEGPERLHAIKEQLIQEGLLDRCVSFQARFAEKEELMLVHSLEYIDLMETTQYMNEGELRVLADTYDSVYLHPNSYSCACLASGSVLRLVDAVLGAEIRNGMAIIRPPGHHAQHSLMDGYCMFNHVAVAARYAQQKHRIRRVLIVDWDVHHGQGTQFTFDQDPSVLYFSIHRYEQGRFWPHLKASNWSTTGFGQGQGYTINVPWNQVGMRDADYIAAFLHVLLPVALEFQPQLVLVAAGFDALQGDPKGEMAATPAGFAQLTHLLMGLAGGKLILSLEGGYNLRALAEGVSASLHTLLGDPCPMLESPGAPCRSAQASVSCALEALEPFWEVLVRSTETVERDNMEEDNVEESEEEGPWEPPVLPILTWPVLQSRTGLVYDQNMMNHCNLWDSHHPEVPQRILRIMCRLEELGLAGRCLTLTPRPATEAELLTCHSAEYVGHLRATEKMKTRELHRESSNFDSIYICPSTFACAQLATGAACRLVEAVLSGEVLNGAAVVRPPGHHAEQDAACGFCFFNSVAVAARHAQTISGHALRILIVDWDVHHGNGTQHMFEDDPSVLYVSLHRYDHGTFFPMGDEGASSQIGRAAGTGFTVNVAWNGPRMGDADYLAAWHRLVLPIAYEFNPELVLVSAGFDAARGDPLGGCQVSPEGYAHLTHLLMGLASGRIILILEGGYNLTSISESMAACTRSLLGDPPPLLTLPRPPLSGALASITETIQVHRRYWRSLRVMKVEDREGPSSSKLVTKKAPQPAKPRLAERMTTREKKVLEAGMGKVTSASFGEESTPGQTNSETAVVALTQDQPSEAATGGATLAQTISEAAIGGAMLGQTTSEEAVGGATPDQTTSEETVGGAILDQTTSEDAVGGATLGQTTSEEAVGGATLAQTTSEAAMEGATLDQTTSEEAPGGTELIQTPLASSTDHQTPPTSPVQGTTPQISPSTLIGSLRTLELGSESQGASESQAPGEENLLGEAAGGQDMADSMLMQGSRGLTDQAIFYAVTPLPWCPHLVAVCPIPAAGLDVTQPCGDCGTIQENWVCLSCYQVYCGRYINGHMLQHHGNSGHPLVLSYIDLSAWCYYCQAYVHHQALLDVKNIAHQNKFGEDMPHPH
Kind of assay: HDAC6 Enzyme Assay. In kind it is biochemical. The note with it: HDAC6 inhibition at a compound concentration of 0.412 μM; read-out: Percent Inhibition at 0.412 μM.
As to `O=C(NO)c1ccc2c(c1)CCCC2NC(=O)C1CCCCC1` (stereo not shown) [Compound I-17, 5-[(cyclohexylcarbonyl)amino]-N-hydroxy-5,6,7,8-tetrahydronaphthalene-2-carboxamide], the inhibition at 0.412 µM came out at 19%. On to `O=C(NO)c1ccc2c(c1)CCCC2NC(=O)c1cc2ccccc2s1` (stereo not shown) [Compound I-24, N-{6-[(hydroxyamino)carbonyl]-1,2,3,4-tetrahydronaphthalen-1-yl}-1-benzothiophene-2-carboxamide], for which the inhibition at 0.412 µM is 46%. Then `O=C(NO)c1ccc2c(c1)CCCC2` [Compound I-66, N-hydroxy-5,6,7,8-tetrahydronaphthalene-2-carboxamide], with 49%. For the compound `O=C(NO)c1ccc2c(c1)CCCC2NC(=O)c1ccsc1` (stereo not shown) [Compound I-3, N-{6-[(hydroxyamino)carbonyl]-1,2,3,4-tetrahydronaphthalen-1-yl}thiophene-3-carboxamide], the inhibition at 0.412 µM is 36%. The value for `CC(C)(C)c1ccc(C(=O)NC2CCCc3cc(C(=O)NO)ccc32)cc1` (stereo not shown) [Compound I-16, 5-[(4-tert-butylbenzoyl)amino]-N-hydroxy-5,6,7,8-tetrahydronaphthalene-2-carboxamide] was 55%; that for `O=C(NO)c1ccc2c(c1)CCC(c1ccncc1)C2` (stereo not shown) [Compound I-99, N-hydroxy-6-pyridin-4-yl-5,6,7,8-tetrahydronaphthalene-2-carboxamide] was 77%; that for `O=C(NO)c1ccc2c(c1)CCC(NCc1ccc(Cl)cc1)C2` (stereo not shown) [Compound I-106, 6-[(4-chlorobenzyl)amino]-N-hydroxy-5,6,7,8-tetrahydronaphthalene-2-carboxamide] was 90%.

Take `Cn1cccc1C(=O)N1C2CCC1c1cc(C(=O)NO)ccc12` (stereo not shown) [Compound I-123, N-hydroxy-9-[(1-methyl-1H-pyrrol-2-yl)carbonyl]-1,2,3,4-tetrahydro-1,4-epiminonaphthalene-6-carboxamide]: the inhibition at 0.412 µM turned out to be 90%. The value for `O=C(NO)c1ccc2c(c1)CCC(NCc1ccncc1)C2` (stereo not shown) [Compound I-107, N-hydroxy-6-[(pyridin-4-ylmethyl)amino]-5,6,7,8-tetrahydronaphthalene-2-carboxamide] was 84%; that for `COc1ccccc1C(=O)NC1CCc2cc(C(=O)NO)ccc2C1` (stereo not shown) [Compound I-122, N-hydroxy-6-[(2-methoxybenzoyl)amino]-5,6,7,8-tetrahydronaphthalene-2-carboxamide] was 88%; that for `COc1ccc(C(=O)NC2CCc3ccc(C(=O)NO)cc3C2)cc1` (stereo not shown) [Compound I-77, N-hydroxy-7-[(4-methoxybenzoyl)amino]-5,6,7,8-tetrahydronaphthalene-2-carboxamide] was 92%.

Regarding `O=C(NO)c1ccc2c(c1)C1CCC2N1C(=O)c1ccc(-c2ccccc2)cc1` (stereo not shown) [Compound I-199, 9-(biphenyl-4-ylcarbonyl)-N-hydroxy-1,2,3,4-tetrahydro-1,4-epiminonaphthalene-6-carboxamide], the inhibition at 0.412 µM is 70%. The value for `O=C(NO)c1ccc2c(c1)CCCC2NC(=O)C(C1CCCCC1)C1CCCCC1` (stereo not shown) [Compound I-13, 5-[(dicyclohexylacetyl)amino]-N-hydroxy-5,6,7,8-tetrahydronaphthalene-2-carboxamide] was 10%; that for `CC(=O)Nc1cccc(C2CCc3cc(C(=O)NO)ccc3C2)c1` (stereo not shown) [Compound I-102, 6-[3-(acetylamino)phenyl]-N-hydroxy-5,6,7,8-tetrahydronaphthalene-2-carboxamide] was 85%; that for `COc1cccc(C(=O)NC2CCc3cc(C(=O)NO)ccc3C2)c1` (stereo not shown) [Compound I-112, N-hydroxy-6-[(3-methoxybenzoyl)amino]-5,6,7,8-tetrahydronaphthalene-2-carboxamide] was 87%. Regarding `CC(C)(C)OC(=O)N1CCC(C(=O)Nc2cc(OC3CCc4cc(C(=O)NO)ccc4C3)ccn2)CC1` (stereo not shown) [Compound I-224, tert-butyl 4-({[4-({6-[(hydroxyamino)carbonyl]-1,2,3,4-tetrahydronaphthalen-2-yl}oxy)pyridin-2-yl]amino}carbonyl)piperidine-1-carboxylate], the inhibition at 0.412 µM was determined as 94%. Then `O=C(NO)c1ccc2c(c1)CC(c1cccnc1)CC2` (stereo not shown) [Compound I-120, N-hydroxy-7-pyridin-3-yl-5,6,7,8-tetrahydronaphthalene-2-carboxamide], with 85%; and `O=C(NO)c1ccc2c(c1)CCCC2NC(=O)c1sc2ccccc2c1Cl` (stereo not shown) [Compound I-32, 3-chloro-N-{6-[(hydroxyamino)carbonyl]-1,2,3,4-tetrahydronaphthalen-1-yl}-1-benzothiophene-2-carboxamide], with 69%. Turning to `COc1cccc(NC2CCc3ccc(C(=O)NO)cc3C2)c1` (stereo not shown) [Compound I-84, N-hydroxy-7-[(3-methoxyphenyl)amino]-5,6,7,8-tetrahydronaphthalene-2-carboxamide], the inhibition at 0.412 µM was found to be 82%. Then `COc1ccc2c(CC(=O)NC3CCCc4cc(C(=O)NO)ccc43)coc2c1` (stereo not shown) [Compound I-36, N-hydroxy-5-{[(6-methoxy-1-benzofuran-3-yl)acetyl]amino}-5,6,7,8-tetrahydronaphthalene-2-carboxamide], with 26%. The value for `O=C(NO)c1ccc2c(c1)CCCC2NC(=O)c1cc(-c2ccc(F)cc2)n[nH]1` (stereo not shown) [Compound I-43, 3-(4-fluorophenyl)-N-{6-[(hydroxyamino)carbonyl]-1,2,3,4-tetrahydronaphthalen-1-yl}-1H-pyrazole-5-carboxamide] was 71%; that for `COc1cccc(C2CCc3cc(C(=O)NO)ccc3C2)c1` (stereo not shown) [Compound I-110, N-hydroxy-6-(3-methoxyphenyl)-5,6,7,8-tetrahydronaphthalene-2-carboxamide] was 42%; that for `O=C(NO)c1ccc2c(c1)CC(c1ccccc1)CC2` (stereo not shown) [Compound I-89, N-hydroxy-7-phenyl-5,6,7,8-tetrahydronaphthalene-2-carboxamide] was 84%. The value for `O=C(NO)c1ccc2c(c1)CCC(NC(=O)c1ccc3occc3c1)C2` (stereo not shown) [Compound I-54, N-{6-[(hydroxyamino)carbonyl]-1,2,3,4-tetrahydronaphthalen-2-yl}-1-benzofuran-5-carboxamide] was 87%; that for `O=C(NO)c1ccc2c(c1)CCC(OCc1ccc(Cl)cc1)C2` (stereo not shown) [Compound I-125, 6-[(4-chlorobenzyl)oxy]-N-hydroxy-5,6,7,8-tetrahydronaphthalene-2-carboxamide] was 87%; that for `CC(C)(Oc1ccccc1Cl)C(=O)NC1CCCc2cc(C(=O)NO)ccc21` (stereo not shown) [Compound I-14, 5-{[2-(2-chlorophenoxy)-2-methylpropanoyl]amino}-N-hydroxy-5,6,7,8-tetrahydronaphthalene-2-carboxamide] was 79%. On to `O=C(NO)c1ccc2c(c1)CC(NCCc1ccccc1)CC2` (stereo not shown) [Compound I-81, N-hydroxy-7-[(2-phenylethyl)amino]-5,6,7,8-tetrahydronaphthalene-2-carboxamide], for which the inhibition at 0.412 µM came to 84%. Turning to `O=C(Cc1c(F)cccc1F)NC1CCCc2cc(C(=O)NO)ccc21` (stereo not shown) [Compound I-1, 5-{[(2,6-difluorophenyl)acetyl]amino}-N-hydroxy-5,6,7,8-tetrahydronaphthalene-2-carboxamide], the inhibition at 0.412 µM stood at 34%.

`Cc1cc(C(=O)NC2CCCc3cc(C(=O)NO)ccc32)n(C(C)(C)C)n1` (stereo not shown) [Compound I-19, 1-tert-butyl-N-{6-[(hydroxyamino)carbonyl]-1,2,3,4-tetrahydronaphthalen-1-yl}-3-methyl-1H-pyrazole-5-carboxamide]: the inhibition at 0.412 µM is 20%. The value for `O=C(NO)c1ccc2c(c1)CCC(NC(=O)C1CCCCC1)C2` (stereo not shown) [Compound I-49, 6-[(cyclohexylcarbonyl)amino]-N-hydroxy-5,6,7,8-tetrahydronaphthalene-2-carboxamide] was 56%; that for `O=C(NO)c1ccc2c(c1)CC(Nc1cccc(Cl)c1)CC2` (stereo not shown) [Compound I-82, 7-[(3-chlorophenyl)amino]-N-hydroxy-5,6,7,8-tetrahydronaphthalene-2-carboxamide] was 85%.

As a reminder, the inhibition is the drop in the measured response relative to a control, in per cent.
